{"source": "patent US9090617B1", "about": "“Agonists of Src homology-2 containing protein tyrosine phosphatase-1 and treatment methods using the same” (National Taiwan University, priority 2011, dated 2015)", "key": {"[1]": {"tested_on": "p-STAT3, cyclin D1, survivin, Mc1-1", "experiment": "Western blot of STAT3-related proteins in HCC cells", "type": "cell-based", "conditions": "HCC cells, 24 h", "description": "Cells were treated with various compounds at 5 and 10 μM for 24 h. Cell lysates were analyzed by western blot.\nHCC cells treated with SC-43 (10 μM for 24 h) were collected with RIPA lysis buffer. Antibodies for immunoblotting such as cyclin D1 was purchased from Santa Cruz Biotechnology. Other antibodies such as survivin, phospho-STAT3 (Tyr705), STAT3, Mc1-1, SOCS1, and SOCS3 were from Cell Signaling."}, "SHP-1 [2]": {"biological_target": "T1, SHP-1 (Homo sapiens, UniProt P29350)", "T1 sequence (P29350 whole entry)": "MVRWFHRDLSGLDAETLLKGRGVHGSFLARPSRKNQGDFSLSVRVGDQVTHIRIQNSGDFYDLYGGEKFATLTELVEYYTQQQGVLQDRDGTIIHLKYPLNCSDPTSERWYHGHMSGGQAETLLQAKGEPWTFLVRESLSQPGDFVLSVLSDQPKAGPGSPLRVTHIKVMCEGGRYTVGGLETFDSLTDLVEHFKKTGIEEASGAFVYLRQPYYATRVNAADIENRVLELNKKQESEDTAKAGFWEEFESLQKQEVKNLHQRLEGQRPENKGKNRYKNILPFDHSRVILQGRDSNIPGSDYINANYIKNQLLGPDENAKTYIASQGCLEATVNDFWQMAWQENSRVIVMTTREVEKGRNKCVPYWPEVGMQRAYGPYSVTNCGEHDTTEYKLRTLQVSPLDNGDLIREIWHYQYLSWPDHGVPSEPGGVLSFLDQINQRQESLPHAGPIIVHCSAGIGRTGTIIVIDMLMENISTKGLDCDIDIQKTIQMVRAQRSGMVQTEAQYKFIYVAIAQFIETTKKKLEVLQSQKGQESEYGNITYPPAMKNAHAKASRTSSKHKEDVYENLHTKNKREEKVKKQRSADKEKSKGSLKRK", "experiment": "Phosphatase activity of recombinant SHP-1", "type": "biochemical", "conditions": "25 ng protein, 30 minutes", "description": "RediPlate 96 EnzChek Tyrosine Phosphatase Assay kit (R-22067) was used for SHP-1 activity assay (Molecular Probes). Recombinant SHP-1 protein (25 ng) was incubated with either SC-43 or SC-40 at the indicated dose for 30 minutes and then analyzed by SHP-1 phosphatase activity."}, "[3]": {"tested_on": "MDAMB231, MDAMB468, MCF-7, HL-60, KG-1 and ML-1", "experiment": "Anti-proliferation in breast cancer and leukemia cell lines", "type": "cell-based", "conditions": "MDAMB231, MDAMB468, MCF-7, HL-60, KG-1, ML-1", "description": "The Huh-7 HCC cell line was obtained from the Health Science Research Resources Bank (Osaka, Japan; JCRB0403). The PLC/PRF/5 (PLC5), Sk-Hep-1, and Hep3B cell lines were obtained from American Type Culture Collection (Manassas, Va.). The cells were maintained in DMEM supplemented with 10% FBS, 100 units/mL penicillin G, 100 μg/mL streptomycin sulfate and 25 μg/mL amphotericin B in a 37° C. humidified incubator in an atmosphere of 5% CO2 in air. Other cell lines, including breast cancer cells e.g. MDAMB231, MDAMB468, MCF-7, and leukemia cancer cells e.g. HL-60, KG-1 and ML-1 are also provided for the assays described below.\nWe also examed the effects of SC-1 and SC-43 in other cancer cell lines, including breast cancer cell lines e.g. MDAMB231, MDAMB468, MCF-7, and leukemia cancer cell lines e.g. HL-60, KG-1 and ML-1."}, "phospho-STAT3 (Tyr705)": {"tested_on": "phospho-STAT3 (Tyr705)", "experiment": "Phospho-STAT3 (Tyr705) sandwich ELISA", "type": "cell-based", "conditions": "PLC5 cells", "description": "A PathScan Phospho-Stat3 (Tyr705) Sandwich ELISA Kit was used for the detection of phospho-STAT3 (Cell Signaling, Danvers, Mass.). Cells were pre-treated with IL-6 1 ng/ml and then exposed with various compounds at 10 μM for 24 h. After incubation with cell lysates, both non-phospho- and phospho-Stat3 proteins are captured by the coated antibody. The expression of phospho-STAT3 was measured at 450 nm absorbance.\nThe decreased level of P-STAT3 induced by these derivatives was correlated with cell toxicity. In the other words, these derivatives induced cell death in part through inhibition of STAT3.\nWe also assayed the activation status of p-STAT3 by STAT3 ELISA. […] SC-1 or sorafenib-treated cell extracts were incubated with antibody against phosphorylated STAT3 at Y705. […] To evaluate the transcriptional activity, STAT3-binding region was cloned into Luc reporter. […] The firefly luciferase activity was evaluated and normalized by Renilla luciferase.\np-STAT3 activity: PLC5 cells treated with SC derivatives were collected in RIPA buffer and analyzed in p-STAT3 ELISA kit. The assay protocol follows the manufacturer."}, "[4]": {"tested_on": "PLC5/luc2 orthotopic tumors", "experiment": "HCC orthotopic model with PLC5/luc2 cells", "type": "in vivo, mice", "conditions": "10 mg/kg/day orally", "description": "All experimental procedures using these mice were done in accordance with protocols approved by the Institutional Laboratory Animal Care and Use Committee of National Taiwan University. Each mouse was inoculated within liver […] with 1×10^4 PLC5/luc cells suspended in 0.1 mL of serum-free medium containing 50% Matrigel (BD Biosciences). […] Tumor growth was monitored by non-invasive in vivo imaging system (IVIS) image system twice weekly.\n(§1) We established an HCC orthotopic model using luc2-expressed PLC5 cells inoculated into liver of nude mice. […] To further correlate the molecular mechanism with the anticancer effect in vivo, p-STAT3 and SHP-1 activity in tumor extract from vehicle- and SC-treated mice was analyzed by immunoblotting. […] The pharmacokinetics of SC-43 was determined (FIG. 25E)."}, "HCC cells [5]": {"tested_on": "HCC cells", "experiment": "cells", "text": "Points, mean; bars, SD (n=6).\nPoints, mean; bars, SD ([…]). […] The N-SH2 domain is in orange, the C-SH2 domain is in marine, the PTP domain is in hot pink, and the linkers between them are in gray. […] ELISA, enzyme-linked immunosorbent assay."}, "SHP-1 [6]": {"biological_target": "T1, SHP-1", "experiment": "Phosphatase activity of SHP-1 immunoprecipitated from PLC5 cells, incubated with compound in vitro", "type": "biochemical", "set-up": "PLC5 protein extract was incubated with anti-SHP-1 antibody in immunoprecipitation buffer overnight; endogenous in cells; host or cells: PLC5 (PLC/PRF/5)", "conditions": "SHP-1-containing PLC5 extract, 10 or 100 nmol/L, 30 min, 4° C.", "description": "PLC5 protein extract was incubated with anti-SHP-1 antibody in immunoprecipitation buffer overnight. Protein G Sepharose 4 Fast flow (GE Healthcare Bio-Science) was added to each sample, followed by incubation for 3 hours at 4° C. with rotation. […] RediPlate 96 EnzChek Tyrosine Phosphatase Assay kit (R-22067) was used for SHP-1 activity assay (Molecular Probes)."}, "[7]": {"experiment": "Pharmacokinetics of SC-43", "type": "in vivo", "conditions": "compared with literature report for sorafenib", "description": "as §1"}, "HCC cells [8]": {"tested_on": "HCC cells", "experiment": "Apoptosis analysis by flow cytometry (sub-G1)", "type": "cell-based", "conditions": "for apoptosis (sub-G1): HCC cells, 24 h", "method_in_brief": "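HCC cells treated with compounds, harvested, fixed in 75% ethanol and stained with 20 ug/ml propidium iodide, 30 min at 37° C in the dark. Sub-G1 population measured by flow cytometry as apoptotic fraction; mean ± SD.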"}, "HCC-bearing mice": {"tested_on": "HCC-bearing mice", "experiment": "Antitumor effect of SC-43 in HCC-bearing mice", "conditions": "mouse, in vivo", "description": "SHP-1/STAT3-related signaling pathway acts as a vital target for the anti-tumor effect of SC-43. See FIG. 22 (A) the cytotoxicity of SC-43 in HCC cells, (B) the antitumor effect of SC-43 in HCC-bearing mice, (C) the activity of SHP-1 induced by SC-43, and (D) Western blot analysis of p-STAT3 and STAT3 in HCC cells treated by SC-43 (10 μM and 20 μM)."}, "PLC5 tumors": {"tested_on": "PLC5 tumors", "experiment": "Subcutaneous PLC5 xenograft", "type": "in vivo, mice", "conditions": "10 mg/kg/day orally", "description": "All experimental procedures using these mice were done in accordance with protocols approved by the Institutional Laboratory Animal Care and Use Committee of National Taiwan University. Each mouse was inoculated s.c. in the dorsal flank with 1×10^6 PLC5 cells suspended in 0.1 mL of serum-free medium containing 50% Matrigel (BD Biosciences). When tumors reached 100 to 200 mm3, mice received SC-40 tosylate (10 or 20 mg/kg) orally once daily. Tumors were measured weekly using calipers, and their volumes were calculated using the following standard formula: width×length×height×0.52.\nas §1"}, "VEGFR1": {"biological_target": "T2, VEGFR1 (Homo sapiens, UniProt P17948)", "T2 construct": "we tested the effect of SC-49 on the activity of VEGFR1 in HUVEC cells; endogenous in cells; host or cells: HUVEC", "T2 sequence (P17948 27-1338)": "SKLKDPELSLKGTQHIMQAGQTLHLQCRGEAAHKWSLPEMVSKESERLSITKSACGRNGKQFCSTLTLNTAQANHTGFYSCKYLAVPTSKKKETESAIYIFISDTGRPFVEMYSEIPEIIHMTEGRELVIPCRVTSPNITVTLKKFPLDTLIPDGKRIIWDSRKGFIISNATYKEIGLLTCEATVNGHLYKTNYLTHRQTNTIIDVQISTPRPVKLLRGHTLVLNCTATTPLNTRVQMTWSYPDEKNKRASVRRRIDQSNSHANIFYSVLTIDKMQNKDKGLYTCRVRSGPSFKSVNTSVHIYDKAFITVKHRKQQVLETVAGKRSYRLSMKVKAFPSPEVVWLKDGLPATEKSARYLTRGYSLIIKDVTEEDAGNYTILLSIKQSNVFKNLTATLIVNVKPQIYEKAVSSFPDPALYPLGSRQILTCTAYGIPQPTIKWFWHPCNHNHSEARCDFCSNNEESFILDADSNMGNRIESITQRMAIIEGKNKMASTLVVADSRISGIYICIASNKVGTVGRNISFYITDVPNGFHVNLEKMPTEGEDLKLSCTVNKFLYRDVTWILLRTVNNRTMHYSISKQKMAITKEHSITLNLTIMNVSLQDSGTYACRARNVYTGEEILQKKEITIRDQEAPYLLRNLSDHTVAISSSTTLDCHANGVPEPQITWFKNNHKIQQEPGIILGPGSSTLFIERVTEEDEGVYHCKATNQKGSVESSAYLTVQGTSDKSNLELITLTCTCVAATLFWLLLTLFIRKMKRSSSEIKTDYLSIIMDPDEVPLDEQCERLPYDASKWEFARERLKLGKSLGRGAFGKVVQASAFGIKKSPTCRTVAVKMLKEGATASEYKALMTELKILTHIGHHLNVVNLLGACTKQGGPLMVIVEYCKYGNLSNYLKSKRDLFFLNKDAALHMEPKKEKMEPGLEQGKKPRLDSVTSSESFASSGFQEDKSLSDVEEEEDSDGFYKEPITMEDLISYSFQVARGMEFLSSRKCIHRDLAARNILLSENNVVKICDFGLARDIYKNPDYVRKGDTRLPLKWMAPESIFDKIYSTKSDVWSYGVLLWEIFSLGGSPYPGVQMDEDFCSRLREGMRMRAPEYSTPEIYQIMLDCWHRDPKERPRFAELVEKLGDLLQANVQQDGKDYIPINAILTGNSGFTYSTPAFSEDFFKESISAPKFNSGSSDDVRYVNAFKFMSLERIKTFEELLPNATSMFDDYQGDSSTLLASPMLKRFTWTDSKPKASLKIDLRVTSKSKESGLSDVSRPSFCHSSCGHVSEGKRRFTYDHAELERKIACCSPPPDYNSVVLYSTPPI", "experiment": "VEGFR1 activity in HUVEC cells", "type": "cell-based", "conditions": "24 h", "text": "(§2) To further investigate the effect of SC-49 on angiogenesis, we tested the effect of SC-49 on the activity of VEGFR1 in HUVEC cells."}, "Huh-7 tumors": {"tested_on": "Huh-7 tumors", "description": "Male NCr athymic nude mice (5-7 weeks of age) were obtained from the National Laboratory Animal Center (Taipei, Taiwan). All experimental procedures using these mice were performed in accordance with protocols approved by National Taiwan University. […] Controls received vehicle (Chen K F et al. Cancer Res. 2008; 68:6698-6707)."}, "p-STAT1 and p-STAT5": {"tested_on": "p-STAT1 and p-STAT5", "experiment": "Effect on p-STAT1 and p-STAT5", "type": "cell-based", "conditions": "indicated doses, 24 h", "text": "as §2"}}, "note": "Entries after “also recorded” stand apart in the source; their conditions may differ."}
{"smiles": "N#Cc1ccc(Oc2cccc(NC(=O)Nc3ccc(Cl)c(C(F)(F)F)c3)c2)cc1", "note": "[SC-43, 1-(3-(4-cyanophenoxyl)phenyl)-3-(4-chloro-3-(trifluoromethyl)phenyl)urea]", "values": [{"measurement": "p-STAT3 and STAT3-related proteins (Western blot)", "setting": "[1]", "result": "down-regulates phospho-STAT3-related signaling pathway in HCC; also recorded: shows better inhibition of p-STAT3-related signaling pathway than sorafenib; also recorded: revealed submicromolar inactivation of p-STAT3, relative to sorafenib"}, {"measurement": "phosphatase activity of recombinant SHP-1", "setting": "SHP-1 [2]", "result": "increase phosphatase activity of SHP-1 in vitro"}, {"measurement": "growth of breast cancer and leukemia cell lines", "setting": "[3]", "result": "effective in inhibiting the growth of cancer cells"}, {"measurement": "p-STAT3 / STAT3 activity (phospho-STAT3 ELISA and luciferase reporter)", "setting": "phospho-STAT3 (Tyr705)", "result": "induce strong inhibition of p-STAT3 activity; also recorded: showed more potent inhibition of the p-STAT3-related signaling pathway"}, {"measurement": "anti-HCC effect and survival in orthotopic model", "setting": "[4]", "result": "had an evident anti-HCC effect and significant survival benefit"}, {"measurement": "viability of HCC cells / cytotoxicity", "setting": "HCC cells [5]; 72 h", "result": "showed lower 50% inhibitory concentration, compared to sorafenib"}, {"measurement": "IC50", "setting": "HCC cells [5]; read-out: IC50, cytotoxicity in HCC cells", "result": "~0.5", "unit": "µM"}, {"measurement": "phosphatase activity of SHP-1 in vitro", "setting": "SHP-1 [6]", "result": "increase phosphatase activity of SHP-1 in vitro"}, {"measurement": "stability in vivo (pharmacokinetics)", "setting": "[7]", "result": "exhibited a longer period of stability in vivo than that reported for sorafenib"}, {"measurement": "apoptosis (sub-G1)", "setting": "HCC cells [8]", "result": "show significant anti-cancer effects in HCC cells"}, {"measurement": "apoptosis in sorafenib-resistant cells", "setting": "HCC cells [8]; sorafenib-resistant HCC cells (SR1)", "result": "resulted in significant apoptosis in sorafenib-resistant cells at submicromolar concentrations"}, {"measurement": "tumor growth inhibition in HCC-bearing mice", "setting": "HCC-bearing mice", "result": "significantly causes tumor growth inhibition in HCC-bearing mice"}, {"measurement": "p-STAT3 and SHP-1 activity in PLC5 tumor lysate", "setting": "PLC5 tumors", "result": "Down-regulation of p-STAT3 and elevation of SHP-1 activity"}, {"measurement": "average tumor size versus control mice at the end of treatment", "setting": "PLC5 tumors; SC PLC5 tumor-bearing mice", "result": "less than half that of control mice"}]}
{"smiles": "N#Cc1ccc(Oc2ccc(CNC(=O)Nc3ccc(Cl)c(C(F)(F)F)c3)cc2)cc1", "note": "[SC-49, 1-(4-chloro-3-(trifluoromethyl)phenyl)-3-(4-(4-cyanophenoxyl)benzyl)urea]", "values": [{"measurement": "activity of VEGFR1", "setting": "VEGFR1", "result": "did not affect the activity of VEGFR1 in HUVEC cells"}, {"measurement": "Huh-7 tumor size / growth versus control", "setting": "Huh-7 tumors; 10 mg/kg/day orally", "result": "significantly reduced the growth of the Huh-7 tumour"}, {"measurement": "body weight or toxicity", "setting": "Huh-7 tumors; mouse, in vivo, po, 10 mg/kg/day", "result": "stable body weights"}, {"measurement": "SHP-1 activity in Huh-7 tumors", "setting": "Huh-7 tumors; tumor extract", "result": "enhanced the activity of SHP-1 in Huh-7 tumours"}, {"measurement": "p-STAT3 in Huh-7 tumors", "setting": "Huh-7 tumors; tumor extract, Western blot", "result": "down-regulated p-STAT3 in Huh-7 tumours"}, {"measurement": "phosphatase activity of SHP-1 in vitro", "setting": "SHP-1 [6]", "result": "increase phosphatase activity of SHP-1 in vitro"}, {"measurement": "p-STAT1 and p-STAT5", "setting": "p-STAT1 and p-STAT5", "result": "down-regulated both p-STAT1 and p-STAT5 in a dose dependent manner"}, {"measurement": "apoptosis (sub-G1)", "setting": "HCC cells [8]", "result": "induced more apoptotic cell death than sorafenib"}]}
